Measured values published in US20240299595A1, “CANCER THERANOSTIC COMPOSITIONS COMPRISING BIGUANIDE COMPLEXES OF GROUP 7 TRANSITION METALS AND USES THEREOF” (BOARD OF REGENTS, THE UNIVERSITY OF TEXAS SYSTEM, priority 2021, published 2024).
Entries after “also recorded” stand apart in the source; their conditions may differ.

Assays:
MiaPaca-2 cells = experiment: Untargeted IC-MS metabolomics; assay type: cell-based
Experimental: Samples were measured by untargeted IC-MS after 12 hours of treatment (n=3).
Metabolites were extracted from lysed cells and samples were measured by untargeted IC-MS (n=3). Data are expressed as mean±SD (n=3). *p<0.05 compared to phenformin.
Following, untargeted IC-MS was used to analyze changes in cellular metabolites.

BXPC-3 = experiment: MTT cytotoxicity, pancreatic cancer cell line BXPC-3; assay type: cell-based
Experimental: To determine cytotoxicity of Re-Phen and Phenformin, different cell lines were exposed to different concentrations of the compounds and their viabilities were followed over time. Pancreatic cells were seeded in 96-well plates (5000 cells/well) overnight, and treated with Re-Phen (FIG. 13A) or phenformin (FIG. 13B) in concentrations ranging from 4.57×10−4 mM to 1.0 mM at 37° C. for 72 h. Cell viability was measured using the MTT assay. The absorption at 590 nm was measured with a microplate reader (SpectraMax, Molecular Device, San Diego, CA) to quantify cell numbers. The proportion of cells was normalized to that of untreated cells and expressed as mean±standard error of the mean (SEM) (n=6). The half-maximal inhibitory concentration (IC50) values were calculated by a sigmoidal dose-response (variable slope) curve-fitting using GraphPad Prism software.

PDAC cells = experiment: Glycolytic ratio, YSI metabolic analyzer; assay type: cell-based; settings: 30 μM, 24 hours
Experimental: The glycolytic ratio was obtained using a YSI metabolic analyzer after treatments with phenformin (30 μM) or Re-Phen (30 μM) for 24 hours. Wells with culture media but without cells were used for baseline reading. Data are presented as mean±SD (n=3). *p<0.05; **p<0.01.
Both Re-Phen and phenformin altered the mitochondrial functions and metabolic state of PDAC cells. The fluorescent intensities for both monomeric forms (Ex/Em=490/525 nm) and J-aggregates (Ex/Em=540/590 nm) of JC-10 change upon mitochondrial membrane polarization. Thus, an increase in the ratio of fluorescence intensities measured at 525 nm (monomeric form) over 590 nm (aggregates) represents a decrease in mitochondrial membrane potential.

HeyA8 = experiment: MTT cytotoxicity, ovarian cancer cell line HeyA8; assay type: cell-based
Experimental: (§1) Finally, a comparison study of the cytotoxicity of Re-Phen and phenformin in a panel of ovarian cancer cell lines by MTT assay after a 72 hour incubation period was conducted. Ovarian cells were seeded at 5000 cells/well in 96-well plates overnight, and treated with Re-Phen or phenformin in different concentrations (from 4.57×10^−4 mM to 1.0 mM in 3-fold increase) at 37° C. for 72 hours. Cell viability was measured using the MTT assay. The absorption at 590 nm was measured at microplate reader (SpectraMax, Molecular Device, San Diego, CA) to quantify cell numbers. The proportion of cells was normalized to that of untreated cells and expressed as mean±standard error of the mean (SEM) (n=5-6). The resulting reduced viability with half-maximal inhibitory concentration (IC50) values of mM were calculated by a sigmoidal dose-response (variable slope) curve-fitting using GraphPad Prism software. The data are shown in FIG. 19A (Re-Phen) and FIG. 19B (phenformin). […] In fact, Re-Phen is shown to display >2,000-fold and >5,000-fold higher cytotoxicity against OVACAR-8 and SKOV3 (Table 2) human ovarian cancer cell lines, respectively.

[1] = system: MiaPaca-2 and Kras* cells; experiment: NADH-to-total NAD (NADt) ratio, colorimetric kit; assay type: cell-based; settings: 100 μM, 3 hours or 12 hours
Experimental: Data are presented as mean±SD (n=3). *p<0.05; ***p<0.001. Vehicle (DMSO) treated cells were as controls.
Following, PDAC cells were used to measure NADH-to-total NAD (NADt) ratios. NADH-to-total NAD (NADt) ratios were measured using a colorimetric kit (Biovision, Milpitas, CA). Briefly, cells were treated for different time periods as indicated and total NAD (NADt, NAD+NADH) was extracted following manufacturer provided protocol. For each of the extracted samples, half of the sample was heated at 60° C. for 30 minutes to decompose NAD+ while keeping NADH intact. Total NAD+ and NADH level was measured without the heating steps and in the presence of NAD cycling enzyme. The ratio of NADH to NADt were calculated on absorbance measured at 450 nm with a microplate reader (SpectraMax, Molecular Device, San Diego, CA). Cells treated with the same amount of DMSO used to prepare 100 μM phenformin or Re-Phen were used as controls.

AMPK = AMPK and AMPK phosphoprotein western blotting; assay type: cell-based; settings: 24 hours
Experimental: R-actin was used as a loading control. Cells were treated with phenformin or Re-Phenformin overnight at the indicated concentrations for 24 hours.
AMPK is a key enzyme that becomes activated under nutrient stress. Annexin V/PI double staining kit was used to detected cell death in flow cytofluorimetric analyses. […] In Kras* cell line, cells died largely of necrosis; in MiaPaca-2 cell line, cells died mostly of apoptosis.

A2789-cp20 = experiment: MTT cytotoxicity, ovarian cancer cell line A2789-cp20; assay type: cell-based; settings: 72 hours
Experimental: as §1

[2] = system: orthotopic Kras* murine PDAC tumor; experiment: Antitumor efficacy, syngeneic Kras* orthotopic PDAC model; assay type: in vivo, C57BL/6 mice; settings: 10 daily intraperitoneal injections, 50 mg/kg/injection
Experimental: FIG. 6A outlines an in vivo experiment assessing antitumor activity of Re-Phen against orthotopic Kras* murine PDAC tumor. Male C57BL/6 mice were inoculated in the pancreas with iKrasG12D murine tumor cells. Treatments were initiated on day 7 after tumor cells inoculation. Each mouse received 10 daily intraperitoneal injections of phenformin or Re-Phen at a dose of 50 mg/kg/injection (100 μL/mouse). Control mice received 50/50 (v/v) Cremorphor EL/absolute ethanol, further diluted at 1:4 (v/v) ratio with saline (100 μL/mouse) before injection.
For antitumor efficacy study, the syngeneic Kras* orthotopic PDAC model was used. Kras* PDAC cells established from transgenic mouse model of PDAC with inducible KrasG12D mutation were inoculated into the pancreas of 6-week-old female C57BL/6 mice (Taconic Biosciences, Rensselaer, NY). Treatments were initiated on day 7 after tumor cells inoculation when tumors were ˜5 mm in diameter. Each mouse received 10 daily intraperitoneal injections of phenformin or Re-Phen at a dose of 50 mg/kg/injection (100 μL/mouse) (FIG. 6A). Each drug was formulated in 50/50 (v/v) Cremorphor EL/absolute ethanol, which that was further diluted at 1:4 (v/v) ratio with saline before injection. Animals were weighted daily to record possible adverse effects. Animals were euthanized on day 16 after the last injection. Tumors were harvested and weighted, fixed in formalin, embedded in paraffin, and cut into 4-μm sections. Slides were immunohistochemically stained with the proliferation marker Ki67, counterstained with hematoxylin and visualized under a brightfield microscope at 100× or 200× magnification.

SMILES	pyrimidine nucleotide pool (MiaPaca-2 cells)	TCA cycle: level of succinate and aspartate versus vehicle (MiaPaca-2 cells; 12 h)	IC50 (BXPC-3; Homo sapiens, BXPC-3, 72 h)	compensatory glycolysis (glycolytic ratio, lactate produced to glucose consumed) (PDAC cells)	IC50 (HeyA8; HEY A8, 72 hours)	ratio of NADH to total NADt [1]	AMPK activation (AMPK)	IC50 (A2789-cp20)	Ki67+ proliferating cells in tumors (IHC) compared to vehicle [2]	change in body weight [2]	purine nucleotide pool compared to phenformin (MiaPaca-2 cells)	level of 3-phosphoglycerate (3-PG) (MiaPaca-2 cells; 100 μM, 12 h)	level of phosphoenolpyruvate (PEP) (MiaPaca-2 cells; 100 μM, 12 h)	level of glutathione (GSH) (MiaPaca-2 cells; 200 μM, 12 hours)	IC50 (BXPC-3; 72 h)	IC50 (HeyA8; 72 hours)	tumor size compared to vehicle control [2]
[H]/N=C(/N)N/C(=N/[H])NCCc1ccccc1 [Phenformin, N-phenylethyl biguanide, reference compound]	decreased pyrimidine nucleotide pool	reduced level of succinate and aspartate	1100 µM	increased compensatory glycolysis	22 µM	increased the ratio of NADH to total NADt; also recorded: significantly increased NADH/NADt ratio	activated AMPK	100 µM	markedly reduced Ki67+ proliferating cells	No significant change in body weight	–	–	–	–	–	–	–
N=C(N)NC(=N)NCCc1ccccc1.[C-]#[O+].[C-]#[O+].[C-]#[O+].[Re+] [Re-Phen]	decreased pyrimidine nucleotide pool	reduced level of succinate and aspartate	–	increased compensatory glycolysis	–	increased the ratio of NADH to total NADt; also recorded: significantly increased NADH/NADt ratio	activated AMPK	260 µM	markedly reduced Ki67+ proliferating cells	No significant change in body weight	increased purine nucleotide pool	increased the level of 3-phosphoglycerate (3-PG) more than phenformin did	suppressed the level of phosphoenolpyruvate (PEP)	increased the level of glutathione (GSH)	340 µM	82 µM	significantly reduced tumor size
